The values below come from patent US7786111B2, “Medicaments for the treatment of chronic obstructive pulmonary disease” (Boehringer Ingelheim Pharma GmbH & Co. KG, priority 2002, dated 2010).

Where a name gives a salt, the structure may show the parent alone.

Consider `CC(C)(Cc1ccc(F)cc1F)NCC(O)c1cc(O)cc2c1OCC(=O)N2` (centres unmarked) (as salt: hydrochloride), for which the melting point was 279 to 280 °C.
In the case of `Cc1cc(CC(C)(C)NCC(O)c2cc(O)cc3c2OCC(=O)N3)ccc1F` (centres unmarked) (as salt: hydrochloride) [Example 10, 8-{2-[2-(4-Fluoro-3-methylphenyl)-1,1-dimethylethylamino]-1-hydroxyethyl}-6-hydroxy-4H-benzo[1,4]oxazin-3-one] it was 278 to 280 °C; in that of `Cc1cc(F)ccc1CC(C)(C)NCC(O)c1cc(O)cc2c1OCC(=O)N2` (centres unmarked) (as salt: hydrochloride) [Example 11, 8-{2-[2-(4-fluoro-2-methylphenyl)-1,1-dimethylethylamino]-1-hydroxyethyl}-6-hydroxy-4H-benzo[1,4]oxazin-3-one], 278 to 280 °C.
In the case of `Cc1cc(C)cc(CC(C)(C)NCC(O)c2cc(O)cc3c2OCC(=O)N3)c1` (centres unmarked) (as salt: hydrochloride) [Example 15, 8-{2-[2-(3,5-dimethylphenyl)-1,1-dimethylethylamino]-1-hydroxyethyl}-6-hydroxy-4H-benzo[1,4]oxazin-3-one] it was 235 to 238 °C.
With `CC(C)(Cc1ccc(OCCCC(=O)O)cc1)NCC(O)c1cc(O)cc2c1OCC(=O)N2` (centres unmarked) [Example 16, 4-(4-{2-[2-hydroxy-2-(6-hydroxy-3-oxo-3,4-dihydro-2H-benzo[1,4]oxazin-8-yl)ethylamino]-2-methylpropyl}phenoxy)butyric acid], the melting point lay within 201 to 204 °C.

A word on the melting point: it is the temperature, or range, at which the solid turns liquid.
